Reference: paper PMC9184463, “Structural basis of ligand binding modes of human EAAT2” (Nature Communications, 2022)

What was measured:
[1] = test system: hEAAT3; parameters: method as in PMID: 7521911; conditions: ref PMID: 7521911; cited from earlier work
[2] = test system: hEAAT1; conditions: ref PMID: 7521911; cited from earlier work
[3] = test system: hEAAT2; conditions: ref PMID: 7521911; cited from earlier work
[4] = molecular target: T1, wild-type hEAAT2 (Homo sapiens, UniProt P43004); assay: whole-cell patch-clamp of hEAAT2-associated anion current, wild-type hEAAT2 in HEK293T cells; assay type: cell-based
T1 construct: Strep Tag II (N); superfolder GFP (sfGFP) (N); expressed in transfected cells; host or cells: HEK293T
T1 sequence (P43004 whole entry, the tested form may be a part): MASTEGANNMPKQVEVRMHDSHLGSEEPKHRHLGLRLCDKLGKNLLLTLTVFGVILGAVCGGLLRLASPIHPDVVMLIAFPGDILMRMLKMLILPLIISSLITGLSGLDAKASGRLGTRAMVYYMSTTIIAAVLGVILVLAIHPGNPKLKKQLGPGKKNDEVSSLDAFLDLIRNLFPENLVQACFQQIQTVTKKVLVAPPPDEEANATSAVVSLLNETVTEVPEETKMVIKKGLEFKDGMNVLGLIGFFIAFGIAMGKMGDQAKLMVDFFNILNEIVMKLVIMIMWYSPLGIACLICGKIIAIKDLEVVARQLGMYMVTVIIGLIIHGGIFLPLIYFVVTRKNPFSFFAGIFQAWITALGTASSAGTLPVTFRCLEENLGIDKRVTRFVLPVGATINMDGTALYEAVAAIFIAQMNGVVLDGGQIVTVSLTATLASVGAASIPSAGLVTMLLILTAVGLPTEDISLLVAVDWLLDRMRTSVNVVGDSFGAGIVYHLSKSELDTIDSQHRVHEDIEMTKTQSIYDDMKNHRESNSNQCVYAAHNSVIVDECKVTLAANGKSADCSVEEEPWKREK
Protocol: (§1) Human embryonic kidney 293T (HEK293T) cells were cultured in Dulbecco’s Modified Eagle Medium (DMEM, Gibco) media supplemented with 15% (v/v) fetal bovine serum (FBS, PAN-Biotech) at 37 °C with 5% CO2. HEK293T cells were grown in the culture dishes (d = 3.5 cm) (Thermo Fisher Scientific) for 24 h and then 1 μg hEAAT2 wild-type and mutant plasmids for per dishes were used to transiently transfect HEK293T using 0.7 μg Lipofectamine 2000 Reagent (Thermo Fisher Scientific). Cells were analyzed using electrophysiological experiments between 24 and 40 h after transfection at room temperature (21–25 °C).
(§2) Electrophysiological experiments were performed as described previously with a minor modification. External buffer contained 140 mM NaCl, 2 mM MgCl2, 2 mM CaCl2, and 10 mM HEPES (pH = 7.4 with NaOH and osmolarity of ∼310 mosmol L^−1) and while internal pipette solution comprised of 130 mM NaSCN, 2 mM MgCl2, 10 mM EGTA, 10 mM HEPES (pH = 7.4 with NaOH and osmolarity of ∼310 mosmol L^−1) and 10 mM glutamate. 50 mM WAY-213613 stock solutions were prepared in dimethyl sulfoxide (DMSO), followed by dilutions to working concentrations with the above-mentioned external buffer. […] Whole cell patch-clamp experiment recordings were made from isolated GFP-positive HEK293T cells (hEAAT2 wild type and mutants). In all, 3–6 MΩ was used to fire a polished pipette (Sutter Instrument). […] Cells were immersed in the above-mentioned external buffer supplemented with a specified concentration of glutamate or WAY-213613. Glutamate-induced anion current, Na^+-dependent anion leak current and glutamate transport current or WAY-213613 inhibited anion leak currents were recorded using an EPC-10 amplifier (HEKA Electronic) at a 20 kHz sample rate with low pass filter at 5 kHz. All experiments were executed at 0 mV. After the cell current was stabilized, glutamate or WAY-213613 was sustained at the indicated concentrations from external dosing for at least 6 s. Subsequently, the cell was washed away with external buffer to start a new round of applications or end the experiment. The plateau currents were used for the following calculations. For analysis, the data was acquired by PatchMaster program (HEKA Electronic) at 5 s after recording. Nonlinear dose–response relationships were fitted into a Michaelis–Menten-like equation shown as below to obtain the apparent Km and Ki values in the presence of glutamate or WAY-213613.1 I/Imax=Km/i/C+Km/i In this equation, I represent the current at different glutamate or inhibitor concentrations, and Imax represents the maximal current at the saturating concentration of glutamate or inhibitor. [C] represents the concentration of glutamate or inhibitor. Km/i represents the apparent constant.

[5] = molecular target: T2, hEAAT2 mutant L467I (Homo sapiens, UniProt P43004, L467I); assay: whole-cell patch-clamp, hEAAT2 mutant L467I in HEK293T cells; assay type: cell-based; conditions: for glutamate-induced current, normalized (MEAN): L467I, 0 mV
T2 construct: Strep Tag II (N); superfolder GFP (sfGFP) (N); expressed in transfected cells; host or cells: HEK293T
T2 sequence (P43004 whole entry L467I): as the sequence (P43004 whole entry, the tested form may be a part) above, with L467I counted along it
Protocol: as §1, §2

[6] = molecular target: T3, hEAAT2 mutant I464V (Homo sapiens, UniProt P43004, I464V); assay: whole-cell patch-clamp, hEAAT2 mutant I464V in HEK293T cells; assay type: cell-based; conditions: for glutamate-induced current, normalized (MEAN): I464V, 0 mV
T3 construct: Strep Tag II (N); superfolder GFP (sfGFP) (N); expressed in transfected cells; host or cells: HEK293T
T3 sequence (P43004 whole entry I464V): as the sequence (P43004 whole entry, the tested form may be a part) above, with I464V counted along it
Protocol: as §1, §2

[7] = molecular target: T4, hEAAT2 mutant D475A (Homo sapiens, UniProt P43004, D475A); assay: whole-cell patch-clamp, hEAAT2 mutant D475A in HEK293T cells; assay type: cell-based
T4 construct: Strep Tag II (N); superfolder GFP (sfGFP) (N); expressed in transfected cells; host or cells: HEK293T
T4 sequence (P43004 whole entry D475A): as the sequence (P43004 whole entry, the tested form may be a part) above, with D475A counted along it
Protocol: as §1, §2

[8] = molecular target: T5, hEAAT2 mutant R478A (Homo sapiens, UniProt P43004, R478A); assay: whole-cell patch-clamp, hEAAT2 mutant R478A in HEK293T cells; assay type: cell-based
T5 construct: Strep Tag II (N); superfolder GFP (sfGFP) (N); expressed in transfected cells; host or cells: HEK293T
T5 sequence (P43004 whole entry R478A): as the sequence (P43004 whole entry, the tested form may be a part) above, with R478A counted along it
Protocol: as §1, §2

[9] = molecular target: T6, hEAAT2 mutant V468I (Homo sapiens, UniProt P43004, V468I); assay: whole-cell patch-clamp, hEAAT2 mutant V468I in HEK293T cells; assay type: cell-based; conditions: for glutamate-induced current, normalized (MEAN): V468I, 0 mV
T6 construct: Strep Tag II (N); superfolder GFP (sfGFP) (N); expressed in transfected cells; host or cells: HEK293T
T6 sequence (P43004 whole entry V468I): as the sequence (P43004 whole entry, the tested form may be a part) above, with V468I counted along it
Protocol: as §1, §2

[10] = molecular target: T7, hEAAT2 mutant S441G (Homo sapiens, UniProt P43004, S441G); assay: whole-cell patch-clamp, hEAAT2 mutant S441G in HEK293T cells; assay type: cell-based; conditions: 0 mV; for glutamate-induced current, normalized (MEAN): S441G, normalized to maximal current
T7 construct: Strep Tag II (N); superfolder GFP (sfGFP) (N); expressed in transfected cells; host or cells: HEK293T
T7 sequence (P43004 whole entry S441G): as the sequence (P43004 whole entry, the tested form may be a part) above, with S441G counted along it
Protocol: as §1, §2

[11] = 3 μM glutamate, normalized to current at 1000 μM
[12] = 10 μM glutamate, normalized to current at 1000 μM
[13] = 30 μM glutamate, normalized to current at 1000 μM
[14] = 100 μM glutamate, normalized to current at 1000 μM
[15] = 300 μM glutamate, normalized to current at 1000 μM
[16] = 1000 μM glutamate, normalization reference

N[C@@H](CC(=O)O)C(=O)O [aspartate]
Km [1]: 47 µM | Km [2]: 60 µM | Km [3]: 54 µM

N[C@@H](CCC(=O)O)C(=O)O [glutamate]
Km [1]: 62 µM | glutamate-induced current, normalized (MEAN) ([4]; 3 μM glutamate, WT, 0 mV, normalized to current at 1000 μM glutamate): 0.1101 | glutamate-induced current, normalized (MEAN) ([4]; 10 μM glutamate, WT, 0 mV, normalized to current at 1000 μM glutamate): 0.2265 | glutamate-induced current, normalized (MEAN) ([4]; 30 μM glutamate, WT, 0 mV, normalized to current at 1000 μM glutamate): 0.5388 | glutamate-induced current, normalized (MEAN) ([4]; 100 μM glutamate, WT, 0 mV, normalized to current at 1000 μM glutamate): 0.751 | glutamate-induced current, normalized (MEAN) ([4]; 300 μM glutamate, WT, 0 mV, normalized to current at 1000 μM glutamate): 0.9307 | glutamate-related current density (MEAN) ([4]; 1mM Glutamate, WT, 0 mV, Na+ dependent leak current subtracted): -27.6784 pA/pF | glutamate-induced current, normalized (MEAN) ([4]; 1000 μM glutamate, WT, 0 mV, normalization reference): 1 | effect of substrate on anion leak currents ([4]; wild-type hEAAT2): increased the amplitudes of anion leak currents | Km ([4]; wild-type hEAAT2, HEK293T, 0 mV, Michaelis-Menten-like fit, read-out: apparent Km (activation of anion current)): 30 ± 2.5 µM | glutamate-induced current, normalized (MEAN) [5, 11]: 0.09492 | glutamate-induced current, normalized (MEAN) [5, 12]: 0.2532 | glutamate-induced current, normalized (MEAN) [5, 13]: 0.5328 | glutamate-induced current, normalized (MEAN) [5, 14]: 0.7948 | glutamate-induced current, normalized (MEAN) [5, 15]: 0.9242 | glutamate-induced current, normalized (MEAN) [5, 16]: 1 | activation of anion current ([5]; L467I mutant, glutamate in external solution): significantly activate anion current with similar efficacy as that of wild-type hEAAT2 | glutamate-induced current, normalized (MEAN) [6, 11]: 0.1004 | glutamate-induced current, normalized (MEAN) [6, 12]: 0.2675 | glutamate-induced current, normalized (MEAN) [6, 13]: 0.5257 | glutamate-induced current, normalized (MEAN) [6, 14]: 0.7538 | glutamate-induced current, normalized (MEAN) [6, 15]: 0.9218 | glutamate-induced current, normalized (MEAN) [6, 16]: 1 | activation of anion current ([6]; I464V mutant, glutamate in external solution): significantly activate anion current with similar efficacy as that of wild-type hEAAT2 | Km [2]: 48 µM | glutamate-related current density (MEAN) ([7]; 1mM Glutamate, D475A, 0 mV, Na+ dependent leak current subtracted): 1.113 pA/pF | activation of anion currents ([7]; D475A mutant, glutamate up to 1 mM): failed to activate anion currents | glutamate-related current density (MEAN) ([8]; 1mM Glutamate, R478A, 0 mV, Na+ dependent leak current subtracted): 0.4954 pA/pF | activation of anion currents ([8]; R478A mutant, glutamate up to 1 mM): failed to activate anion currents | glutamate-induced current, normalized (MEAN) [9, 11]: 0.1059 | glutamate-induced current, normalized (MEAN) [9, 12]: 0.2526 | glutamate-induced current, normalized (MEAN) [9, 13]: 0.5136 | glutamate-induced current, normalized (MEAN) [9, 14]: 0.8108 | glutamate-induced current, normalized (MEAN) [9, 15]: 0.9282 | glutamate-induced current, normalized (MEAN) [9, 16]: 1 | activation of anion current ([9]; V468I mutant, glutamate in external solution): significantly activate anion current with similar efficacy as that of wild-type hEAAT2 | Km [3]: 97 µM | glutamate-induced current, normalized (MEAN) ([10]; 0.1 μM glutamate): 0.1494 | glutamate-induced current, normalized (MEAN) ([10]; 0.3 μM glutamate): 0.4931 | glutamate-induced current, normalized (MEAN) ([10]; 1 μM glutamate): 0.73 | glutamate-induced current, normalized (MEAN) ([10]; 3 μM glutamate): 0.9123 | glutamate-induced current, normalized (MEAN) ([10]; 10 μM glutamate): 1 | glutamate-induced current, normalized (MEAN) ([10]; 30 μM glutamate): 1.038 | Km ([10]; S441G mutant, read-out: apparent Km): 0.4 ± 0.03 µM
